Laboratory results published in patent US20020137154A1, “Methods for improving cell growth and alcohol production during fermentation” (priority 2000, published 2002).
Read-outs that look alike come from different tables or passages of the source.

System: recombinant Escherichia coli KO11
Assay: Batch fermentation of E. coli KO11 in 1% CSL medium and glucose with nutrient additives: ethanol production and cell growth
Assay type: cell-based
Settings: for Ethanol Production Maximum / Ethanol yield / Initial Growth (OD @ 24 h) OD / Maximum Cell Density OD / Volumetric Productivity Average / Volumetric Productivity Maximum: 1% CSL+glucose; for activity at 500 µg/mL / activity at 250 µg/mL / activity at 750 µg/mL: Escherichia coli

SMILES: CC=O [Acetaldehyde, acetaldehyde]
- initial growth and maximum cell density as compared to a control (1% CSL and glucose, 0.25 g/L at the start): greatest initial growth and maximum cell density
- ethanol production as compared to the control (1% CSL and glucose, 0.75 g/L at the start): highest amount of ethanol production
- Ethanol Production Maximum (0.25 g/L at start): 40.31 g/L
- Ethanol yield (0.25 g/L at start): 0.415 grams of ethanol/grams of added sugar
- Initial Growth (OD @ 24 h) OD (0.25 g/L at start): 3.00 OD
- Maximum Cell Density OD (0.25 g/L at start): 3.17 OD
- Volumetric Productivity Average (0.25 g/L at start): 0.560 grams ethanol/(liter)(hour)
- Volumetric Productivity Maximum (0.25 g/L at start): 0.678 grams ethanol/(liter)(hour)
- Ethanol Production Maximum (0.5 + 0.25 g/L (start, 8 h)): 40.25 g/L
- Ethanol yield (0.5 + 0.25 g/L (start, 8 h)): 0.414 grams of ethanol/grams of added sugar
- Initial Growth (OD @ 24 h) OD (0.5 + 0.25 g/L (start, 8 h)): 2.64 OD
- Maximum Cell Density OD (0.5 + 0.25 g/L (start, 8 h)): 2.99 OD
- Volumetric Productivity Average (0.5 + 0.25 g/L (start, 8 h)): 0.419 grams ethanol/(liter)(hour)
- Volumetric Productivity Maximum (0.5 + 0.25 g/L (start, 8 h)): 0.598 grams ethanol/(liter)(hour)
- Ethanol Production Maximum (0.5 + 0.5 g/L (start, 8 h)): 40.03 g/L
- Ethanol yield (0.5 + 0.5 g/L (start, 8 h)): 0.412 grams of ethanol/grams of added sugar
- Initial Growth (OD @ 24 h) OD (0.5 + 0.5 g/L (start, 8 h)): 2.74 OD
- Maximum Cell Density OD (0.5 + 0.5 g/L (start, 8 h)): 3.09 OD
- Volumetric Productivity Average (0.5 + 0.5 g/L (start, 8 h)): 0.417 grams ethanol/(liter)(hour)
- Volumetric Productivity Maximum (0.5 + 0.5 g/L (start, 8 h)): 0.659 grams ethanol/(liter)(hour)
- Ethanol Production Maximum (0.5 g/L at start): 39.95 g/L
- Ethanol yield (0.5 g/L at start): 0.411 grams of ethanol/grams of added sugar
- Initial Growth (OD @ 24 h) OD (0.5 g/L at start): 2.77 OD
- Maximum Cell Density OD (0.5 g/L at start): 2.96 OD
- Volumetric Productivity Average (0.5 g/L at start): 0.416 grams ethanol/(liter)(hour)
- Volumetric Productivity Maximum (0.5 g/L at start): 0.615 grams ethanol/(liter)(hour)
- Ethanol Production Maximum (0.75 g/L at start): 43.44 g/L
- Ethanol yield (0.75 g/L at start): 0.447 grams of ethanol/grams of added sugar
- Initial Growth (OD @ 24 h) OD (0.75 g/L at start): 2.47 OD
- Maximum Cell Density OD (0.75 g/L at start): 2.81 OD
- Volumetric Productivity Average (0.75 g/L at start): 0.452 grams ethanol/(liter)(hour)
- Volumetric Productivity Maximum (0.75 g/L at start): 0.699 grams ethanol/(liter)(hour)
- activity at 500 µg/mL (8 h, read-out: Ethanol Production Maximum % Control, 1% CSL+glucose, 0.5 + 0.25 g/L (start, 8 h)): 109%
- activity at 500 µg/mL (8 h, read-out: Ethanol Production Maximum % Control, 1% CSL+glucose, 0.5 + 0.5 g/L (start, 8 h)): 108%
- activity at 500 µg/mL (8 h, read-out: Maximum Cell Density % Control, 1% CSL+glucose, 0.5 + 0.25 g/L (start, 8 h)): 111%
- activity at 500 µg/mL (8 h, read-out: Maximum Cell Density % Control, 1% CSL+glucose, 0.5 + 0.5 g/L (start, 8 h)): 115%
- activity at 500 µg/mL (8 h, read-out: Volumetric Productivity Average % Control, 1% CSL+glucose, 0.5 + 0.25 g/L (start, 8 h)): 109%
- activity at 500 µg/mL (8 h, read-out: Volumetric Productivity Average % Control, 1% CSL+glucose, 0.5 + 0.5 g/L (start, 8 h)): 108%
- activity at 500 µg/mL (8 h, read-out: Volumetric Productivity Maximum % Control, 1% CSL+glucose, 0.5 + 0.25 g/L (start, 8 h)): 116%
- activity at 500 µg/mL (8 h, read-out: Volumetric Productivity Maximum % Control, 1% CSL+glucose, 0.5 + 0.5 g/L (start, 8 h)): 128%
- activity at 250 µg/mL (24 h, read-out: Initial Growth (OD @ 24 h) % Control, 1% CSL+glucose, 0.25 g/L at start): 112%
- activity at 500 µg/mL (24 h, read-out: Initial Growth (OD @ 24 h) % Control, 1% CSL+glucose, 0.5 + 0.25 g/L (start, 8 h)): 98.9%
- activity at 500 µg/mL (24 h, read-out: Initial Growth (OD @ 24 h) % Control, 1% CSL+glucose, 0.5 + 0.5 g/L (start, 8 h)): 103%
- activity at 500 µg/mL (24 h, read-out: Initial Growth (OD @ 24 h) % Control, 1% CSL+glucose, 0.5 g/L at start): 104%
- activity at 750 µg/mL (24 h, read-out: Initial Growth (OD @ 24 h) % Control, 1% CSL+glucose, 0.75 g/L at start): 92.5%
- activity at 250 µg/mL (read-out: Ethanol Production Maximum % Control, 1% CSL+glucose, 0.25 g/L at start): 109%
- activity at 500 µg/mL (read-out: Ethanol Production Maximum % Control, 1% CSL+glucose, 0.5 g/L at start): 108%
- activity at 750 µg/mL (read-out: Ethanol Production Maximum % Control, 1% CSL+glucose, 0.75 g/L at start): 117%
- activity at 250 µg/mL (read-out: Maximum Cell Density % Control, 1% CSL+glucose, 0.25 g/L at start): 118%
- activity at 500 µg/mL (read-out: Maximum Cell Density % Control, 1% CSL+glucose, 0.5 g/L at start): 110%
- activity at 750 µg/mL (read-out: Maximum Cell Density % Control, 1% CSL+glucose, 0.75 g/L at start): 105%
- activity at 250 µg/mL (read-out: Volumetric Productivity Average % Control, 1% CSL+glucose, 0.25 g/L at start): 145%
- activity at 500 µg/mL (read-out: Volumetric Productivity Average % Control, 1% CSL+glucose, 0.5 g/L at start): 108%
- activity at 750 µg/mL (read-out: Volumetric Productivity Average % Control, 1% CSL+glucose, 0.75 g/L at start): 117%
- activity at 250 µg/mL (read-out: Volumetric Productivity Maximum % Control, 1% CSL+glucose, 0.25 g/L at start): 132%
- activity at 500 µg/mL (read-out: Volumetric Productivity Maximum % Control, 1% CSL+glucose, 0.5 g/L at start): 120%
- activity at 750 µg/mL (read-out: Volumetric Productivity Maximum % Control, 1% CSL+glucose, 0.75 g/L at start): 136%
